Columns and labels:
AMBEL (Ragweed, Common) = test: Postemergence herbicidal evaluation; format: in vivo, Ambrosia artemisifolia; details: postemergence
In short: (§1)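 Two-week seedlings sprayed postemergence at 40 psi; formulation: 1:1 acetone/water, 0.5% TWEEN 20; application ≈0.0156–0.500 kg/ha. Greenhouse grow-out, then 0–9 visual scoring at 4–5 weeks.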

CASOB (Sicklepod) [1] = test: Postemergence herbicidal evaluation; format: in vivo, Cassia obtusifolia; details: postemergence
In short: as §1

GALAP (Galium) = test: Postemergence herbicidal evaluation; format: in vivo, Galium aparine; details: postemergence
In short: as §1

[2] = test system: IPOHE (Morningglory, Ivyleaf); test: Postemergence herbicidal evaluation; format: in vivo, Ipomoea hederacea; details: postemergence
In short: as §1

ABUTH (Velvetleaf) = test: Preemergence herbicidal evaluation; format: in vivo, Abutilon theophrasti; details: rated 4-5 weeks after treatment; for ABUTH rating: preemergence, 0-9 scale
In short: (§2)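 Scores (0–9) reflect visual comparison with control plants for stand, vigor, malformation, size and chlorosis. Compound was applied to the soil after sowing, before emergence, as an aqueous acetone spray (about 0.0156–0.500 kg/ha), and cups were kept in a greenhouse for 4–5 weeks.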

CASOB (Sicklepod) [3] = test: Preemergence herbicidal evaluation; format: in vivo, Cassia obtusifolia; details: rated 4-5 weeks after treatment; for CASOB rating: preemergence, 0-9 scale
In short: as §2

[4] = test system: IPOHE (Morningglory, Ivyleaf); test: Preemergence herbicidal evaluation; format: in vivo, Ipomoea hederacea; details: rated 4-5 weeks after treatment; for IPOHE rating: preemergence, 0-9 scale
In short: as §2

ECHCG (Barnyardgrass) = test: Preemergence herbicidal evaluation; format: in vivo, Echinochloa crus-galli; details: rated 4-5 weeks after treatment; for ECHCG rating: preemergence, 0-9 scale
In short: as §2

[5] = test system: GLXMAW (Soybean, Williams); test: Preemergence herbicidal evaluation; format: in vivo, Glycine max, (L.) Merr. cv Williams; details: rated 4-5 weeks after treatment; for GLXMAW rating: preemergence, 0-9 scale
In short: as §2

[6] = test system: TRZAWR (Wheat, Winter, cv Riband); test: Preemergence herbicidal evaluation; format: in vivo, Triticum aestivum; details: rated 4-5 weeks after treatment; for TRZAWR rating: preemergence, 0-9 scale
In short: as §2

ZEAMX (Corn, Field) = test: Preemergence herbicidal evaluation; format: in vivo, Zea mays; details: rated 4-5 weeks after treatment; for ZEAMX rating: preemergence, 0-9 scale
In short: as §2

MOOVA (Monochoria) = test: Preemergence weed control under flooded paddy conditions; format: in vivo, Monochoria vaginalis; details: rated 3-4 weeks after treatment
In short: (§3)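 Greenhouse paddy assay. Acetone/water (50/50 v/v) solutions dosed into flood water, equivalent to about 0.0313 to 0.500 kg/ha active ingredient, over seeds planted 0.5 cm deep in silt loam. Score: 0-9 visual, based on stand, vigor, malformation, size and chlorosis, 3 to 4 weeks after treatment.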

[7] = test system: SAGPY (Arrowhead (Pygmaea)); test: as above; format: in vivo, Sagittaria pygmaea; details: rated 3-4 weeks after treatment
In short: as §3

CYPIR (Rice Flatsedge) = test: Postemergence weed control under flooded paddy conditions; format: in vivo, Cyperus iria; details: postemergence weeds
In short: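 Weeds 3 to 5 cm tall and rice seedlings at the 1.5 to 2.5 leaf stage were flooded, with water held 1.5 to 3 cm above the soil. Compounds in 50/50 v/v aqueous/acetone went into the flood water at about 0.0313 to 0.500 kg/ha. Visual 0-9 ratings versus control were made 3 to 4 weeks later.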

## CCOC(=O)CN1C(=O)CN(C)C1=Nc1cc(-n2c(=O)cc(C(F)(F)F)n(C)c2=O)c(F)cc1Cl [Compound 25, Ethyl 2-{{2-chloro-5-[3,6-dihydro-3-methyl-2,6-dioxo-4-(trifluoromethyl)-1(2H)-pyrimidinyl]-4-fluorophenyl}imino}-3-methyl-5-oxo-1-imidazolidineacetate]
AMBEL (Ragweed, Common); rate 0.0156 kg/ha
  AMBEL herbicidal rating: 3.0
AMBEL (Ragweed, Common); rate 0.0313 kg/ha
  AMBEL herbicidal rating: 4.0
AMBEL (Ragweed, Common); rate 0.0625 kg/ha
  AMBEL herbicidal rating: 9.0
CASOB (Sicklepod) [1]; rate 0.0156 kg/ha
  CASOB herbicidal rating: 0.0
CASOB (Sicklepod) [1]; rate 0.0313 kg/ha
  CASOB herbicidal rating: 0.0
CASOB (Sicklepod) [1]; rate 0.0625 kg/ha
  CASOB herbicidal rating: 0.0
GALAP (Galium); rate 0.0156 kg/ha
  GALAP herbicidal rating: 2.0
GALAP (Galium); rate 0.0313 kg/ha
  GALAP herbicidal rating: 5.0
GALAP (Galium); rate 0.0625 kg/ha
  GALAP herbicidal rating: 7.0
[2]; rate 0.0156 kg/ha
  IPOHE herbicidal rating: 9.0
[2]; rate 0.0313 kg/ha
  IPOHE herbicidal rating: 9.0
[2]; rate 0.0625 kg/ha
  IPOHE herbicidal rating: 9.0
ABUTH (Velvetleaf); rate 0.0156 kg/ha
  Preemergence herbicidal rating ABUTH: 9.0
ABUTH (Velvetleaf); rate 0.0313 kg/ha
  Preemergence herbicidal rating ABUTH: 9.0
ABUTH (Velvetleaf); rate 0.0625 kg/ha
  ABUTH preemergence herbicidal rating: 9.0
ABUTH (Velvetleaf); rate 0.1250 kg/ha
  ABUTH preemergence herbicidal rating: 9.0
ABUTH (Velvetleaf); rate 0.2500 kg/ha
  ABUTH preemergence herbicidal rating: 9.0
CASOB (Sicklepod) [3]; rate 0.0156 kg/ha
  Preemergence herbicidal rating CASOB: 0.0
CASOB (Sicklepod) [3]; rate 0.0313 kg/ha
  Preemergence herbicidal rating CASOB: 0.0
CASOB (Sicklepod) [3]; rate 0.0625 kg/ha
  CASOB preemergence herbicidal rating: 0.0
CASOB (Sicklepod) [3]; rate 0.1250 kg/ha
  CASOB preemergence herbicidal rating: 2.0
CASOB (Sicklepod) [3]; rate 0.2500 kg/ha
  CASOB preemergence herbicidal rating: 3.0
[4]; rate 0.0156 kg/ha
  Preemergence herbicidal rating IPOHE: 0.0
[4]; rate 0.0313 kg/ha
  Preemergence herbicidal rating IPOHE: 0.0
[4]; rate 0.0625 kg/ha
  IPOHE preemergence herbicidal rating: 0.0
[4]; rate 0.1250 kg/ha
  IPOHE preemergence herbicidal rating: 2.0
[4]; rate 0.2500 kg/ha
  IPOHE preemergence herbicidal rating: 5.0
ECHCG (Barnyardgrass); rate 0.0156 kg/ha
  Preemergence herbicidal rating ECHCG: 0.0
ECHCG (Barnyardgrass); rate 0.0313 kg/ha
  Preemergence herbicidal rating ECHCG: 0.0
ECHCG (Barnyardgrass); rate 0.0625 kg/ha
  ECHCG preemergence herbicidal rating: 0.0
ECHCG (Barnyardgrass); rate 0.1250 kg/ha
  ECHCG preemergence herbicidal rating: 0.0
ECHCG (Barnyardgrass); rate 0.2500 kg/ha
  ECHCG preemergence herbicidal rating: 7.0
[5]; rate 0.0156 kg/ha
  Preemergence herbicidal rating GLXMAW: 0.0
[5]; rate 0.0313 kg/ha
  Preemergence herbicidal rating GLXMAW: 0.0
[5]; rate 0.0625 kg/ha
  GLXMAW preemergence herbicidal rating: 2.0
[5]; rate 0.1250 kg/ha
  GLXMAW preemergence herbicidal rating: 3.0
[5]; rate 0.2500 kg/ha
  GLXMAW preemergence herbicidal rating: 6.0
[6]; rate 0.0156 kg/ha
  Preemergence herbicidal rating TRZAWR: 0.0
[6]; rate 0.0313 kg/ha
  Preemergence herbicidal rating TRZAWR: 1.0
[6]; rate 0.0625 kg/ha
  TRZAWR preemergence herbicidal rating: 2.0
[6]; rate 0.1250 kg/ha
  TRZAWR preemergence herbicidal rating: 3.0
[6]; rate 0.2500 kg/ha
  TRZAWR preemergence herbicidal rating: 6.0
ZEAMX (Corn, Field); rate 0.0156 kg/ha
  Preemergence herbicidal rating ZEAMX: 0.0
ZEAMX (Corn, Field); rate 0.0313 kg/ha
  Preemergence herbicidal rating ZEAMX: 0.0
ZEAMX (Corn, Field); rate 0.0625 kg/ha
  ZEAMX preemergence herbicidal rating: 6.0
ZEAMX (Corn, Field); rate 0.1250 kg/ha
  ZEAMX preemergence herbicidal rating: 8.0
ZEAMX (Corn, Field); rate 0.2500 kg/ha
  ZEAMX preemergence herbicidal rating: 9.0
MOOVA (Monochoria); 0.0313 kg/ha
  Herbicidal rating MOOVA: 9.0
MOOVA (Monochoria); 0.0625 kg/ha
  Herbicidal rating MOOVA: 9.0
MOOVA (Monochoria); 0.1250 kg/ha
  Herbicidal rating MOOVA: 9.0
MOOVA (Monochoria); 0.2500 kg/ha
  Herbicidal rating MOOVA: 9.0
[7]; 0.0313 kg/ha
  Herbicidal rating SAGPY: 0.0
[7]; 0.0625 kg/ha
  Herbicidal rating SAGPY: 0.0
[7]; 0.1250 kg/ha
  Herbicidal rating SAGPY: 5.0
[7]; 0.2500 kg/ha
  Herbicidal rating SAGPY: 5.0
CYPIR (Rice Flatsedge); rate 0.0313 kg/ha, 3-4 weeks after treatment
  Herbicidal rating CYPIR: 0.0
CYPIR (Rice Flatsedge); rate 0.0625 kg/ha, 3-4 weeks after treatment
  Herbicidal rating CYPIR: 0.0
CYPIR (Rice Flatsedge); rate 0.1250 kg/ha, 3-4 weeks after treatment
  Herbicidal rating CYPIR: 0.0
CYPIR (Rice Flatsedge); rate 0.2500 kg/ha, 3-4 weeks after treatment
  Herbicidal rating CYPIR: 0.0

## CN1C(=O)C(CC(=O)NS(=O)(=O)c2ccccc2)SC1=Nc1cc(-n2c(=O)cc(C(F)(F)F)n(C)c2=O)c(F)cc1Cl (centres unmarked) [Compound 102, 2-{{2-Chloro-5-[3,6-dihydro-3-methyl-2,6-dioxo-4-(trifluoromethyl)-1(2H)-pyrimidinyl]-4-fluorophenyl}imino}-3-methyl-4-oxo-N-(phenylsulfonyl)-5-thiazolidineacetamide]
AMBEL (Ragweed, Common); rate 0.0156 kg/ha
  Herbicidal rating AMBEL: 7.0
AMBEL (Ragweed, Common); rate 0.0313 kg/ha
  Herbicidal rating AMBEL: 9.0
AMBEL (Ragweed, Common); rate 0.0625 kg/ha
  Herbicidal rating AMBEL: 7.0
AMBEL (Ragweed, Common); rate 0.1250 kg/ha
  Herbicidal rating AMBEL: 9.0
CASOB (Sicklepod) [1]; rate 0.0156 kg/ha
  Herbicidal rating CASOB: 0.0
CASOB (Sicklepod) [1]; rate 0.0313 kg/ha
  Herbicidal rating CASOB: 1.0
CASOB (Sicklepod) [1]; rate 0.0625 kg/ha
  Herbicidal rating CASOB: 1.0
CASOB (Sicklepod) [1]; rate 0.1250 kg/ha
  Herbicidal rating CASOB: 3.0
GALAP (Galium); rate 0.0156 kg/ha
  Herbicidal rating GALAP: 1.0
GALAP (Galium); rate 0.0313 kg/ha
  Herbicidal rating GALAP: 1.0
GALAP (Galium); rate 0.0625 kg/ha
  Herbicidal rating GALAP: 1.0
GALAP (Galium); rate 0.1250 kg/ha
  Herbicidal rating GALAP: 4.0
[2]; rate 0.0156 kg/ha
  Herbicidal rating IPOHE: 9.0
[2]; rate 0.0313 kg/ha
  Herbicidal rating IPOHE: 9.0
[2]; rate 0.0625 kg/ha
  Herbicidal rating IPOHE: 9.0
[2]; rate 0.1250 kg/ha
  Herbicidal rating IPOHE: 9.0
ABUTH (Velvetleaf); 0.0156 kg/ha
  ABUTH rating: 0.0
ABUTH (Velvetleaf); 0.0313 kg/ha
  ABUTH rating: 0.0
ABUTH (Velvetleaf); 0.0625 kg/ha
  ABUTH rating: 9.0
ABUTH (Velvetleaf); 0.2500 kg/ha
  ABUTH rating: 6.0
ABUTH (Velvetleaf); 0.5000 kg/ha
  ABUTH rating: 9.0
CASOB (Sicklepod) [3]; 0.0156 kg/ha
  CASOB rating: 0.0
CASOB (Sicklepod) [3]; 0.0313 kg/ha
  CASOB rating: 0.0
CASOB (Sicklepod) [3]; 0.0625 kg/ha
  CASOB rating: 0.0
CASOB (Sicklepod) [3]; 0.2500 kg/ha
  CASOB rating: 0.0
CASOB (Sicklepod) [3]; 0.5000 kg/ha
  CASOB rating: 4.0
[4]; 0.0156 kg/ha
  IPOHE rating: 0.0
[4]; 0.0313 kg/ha
  IPOHE rating: 0.0
[4]; 0.0625 kg/ha
  IPOHE rating: 0.0
[4]; 0.2500 kg/ha
  IPOHE rating: 1.0
[4]; 0.5000 kg/ha
  IPOHE rating: 9.0
ECHCG (Barnyardgrass); 0.0156 kg/ha
  ECHCG rating: 0.0
ECHCG (Barnyardgrass); 0.0313 kg/ha
  ECHCG rating: 0.0
ECHCG (Barnyardgrass); 0.0625 kg/ha
  ECHCG rating: 0.0
ECHCG (Barnyardgrass); 0.2500 kg/ha
  ECHCG rating: 0.0
ECHCG (Barnyardgrass); 0.5000 kg/ha
  ECHCG rating: 0.0
[5]; 0.0156 kg/ha
  GLXMAW rating: 0.0
[5]; 0.0313 kg/ha
  GLXMAW rating: 0.0
[5]; 0.0625 kg/ha
  GLXMAW rating: 0.0
[5]; 0.2500 kg/ha
  GLXMAW rating: 1.0
[5]; 0.5000 kg/ha
  GLXMAW rating: 4.0
[6]; 0.0156 kg/ha
  TRZAWR rating: 0.0
[6]; 0.0313 kg/ha
  TRZAWR rating: 0.0
[6]; 0.0625 kg/ha
  TRZAWR rating: 0.0
[6]; 0.2500 kg/ha
  TRZAWR rating: 0.0
[6]; 0.5000 kg/ha
  TRZAWR rating: 1.0
ZEAMX (Corn, Field); 0.0156 kg/ha
  ZEAMX rating: 0.0
ZEAMX (Corn, Field); 0.0313 kg/ha
  ZEAMX rating: 0.0
ZEAMX (Corn, Field); 0.0625 kg/ha
  ZEAMX rating: 0.0
ZEAMX (Corn, Field); 0.2500 kg/ha
  ZEAMX rating: 0.0
ZEAMX (Corn, Field); 0.5000 kg/ha
  ZEAMX rating: 1.0
MOOVA (Monochoria); 0.2500 kg/ha
  MOOVA herbicidal effect rating: 0.0
MOOVA (Monochoria); 0.5000 kg/ha
  MOOVA herbicidal effect rating: 4.0
[7]; 0.2500 kg/ha
  SAGPY herbicidal effect rating: 0.0
[7]; 0.5000 kg/ha
  SAGPY herbicidal effect rating: 0.0
CYPIR (Rice Flatsedge); Rate 0.2500 kg/ha, rated 3 to 4 weeks after treatment
  Herbicidal rating CYPIR: 2.0
CYPIR (Rice Flatsedge); Rate 0.5000 kg/ha, rated 3 to 4 weeks after treatment
  Herbicidal rating CYPIR: 6.0

From US20020137929A1, “1 - (3-heterocyclylphenyl) isothiourea, -isourea, -guanidine and -amidine herbicidal agents” (Intellectual Property Department, BASF Aktiengesellschaft, priority 1998, published 2002)
